Assay results taken from the NIST ThermoML archive (doi:10.1016/j.fluid.2018.05.004).
Numbers after ± are expanded uncertainties.

Settings: Crystal, Transpiration method

[CH]1C=CC=C1.[CH]1C=CC=C1.[Fe] [ferrocene]
Settings | vapor or sublimation pressure [kPa]
361.2 K | 0.172 ± 0.021
363.2 K | 0.198 ± 0.025
366.5 K | 0.244 ± 0.031
368.2 K | 0.263 ± 0.034
371.7 K | 0.332 ± 0.042
374.4 K | 0.398 ± 0.05
378.3 K | 0.494 ± 0.063
385.7 K | 0.789 ± 0.098
388.6 K | 0.907 ± 0.11
392.1 K | 1.13 ± 0.14
394 K | 1.23 ± 0.15
401.8 K | 1.881 ± 0.24
410.1 K | 2.869 ± 0.36
417.3 K | 4.29 ± 0.54
419.4 K | 4.338 ± 0.54
429.4 K | 7.204 ± 0.9
430.7 K | 7.571 ± 0.95
434.6 K | 9.559 ± 1.2
435.2 K | 9.195 ± 1.2
